From PMC12518634, “The noncanonical function of liver-type phosphofructokinase potentiates the efficacy of HDAC inhibitors in cancer” (Signal Transduction and Targeted Therapy, 2025)
Like-named read-outs stand apart in the source and are kept apart here. Blank lines part the entries; values can stand above or below the compound they belong to.

Assays:
[1] = tested on: 1405R3; experiment: High-throughput drug screen, CellTiter-Glo viability, 72 h; format: cell-based, human; set-up: AUC: scale not given here; conditions: for EC50: Homo sapiens, 72 h
Procedure, shortened: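 Responses are drug sensitivity scores (efficacy cutoff ≥10), fitted from CellTiter-Glo luminescence. Each drug was given at five concentrations (10 to 0.001 μM, tenfold steps) in duplicate for 72 h. Cells were plated at 3000/well 24 h before dosing.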

[2] = tested on: 783C-6; experiment: as above; format: cell-based, human; set-up: AUC: scale not given here; conditions: for EC50: Homo sapiens, 72 h
Procedure, shortened: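 Cholangiocarcinoma cells were seeded at 3000/well in 384-well plates and dosed after 24 h. Drugs were tested at 10, 1, 0.1, 0.01 and 0.001 μM in duplicate for 72 h, with viability read by CellTiter-Glo luminescence.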

[3] = tested on: CC51 PDX tumors; experiment: CCA patient-derived xenograft tumor growth; format: in vivo; conditions: n = 5 mice per group, Fig. 2d, e
From the text: (§1) For patient-derived xenograft (PDX) models, fresh tumor samples were cut into small pieces of approximately 1 mm³ and subcutaneously transplanted into the flanks of NSG mice (P1 generation). After 2 to 3 months of tumor growth, the established PDX tumors were transplanted into subsequent generations (P2-Pn) under the skin of nude or NSG mice. When the tumors reached approximately 100 mm^3, the mice were randomly allocated to different groups and treated with HDAC inhibitors or saline. Tumor volume calculation, euthanasia of the mice, and specimen preparation followed the procedures of the CDX model.

[4] = tested on: CC52 PDX tumors; experiment: CCA patient-derived xenograft tumor growth; format: in vivo; conditions: n = 5 mice per group, Fig. 2d, e
From the text: as §1

[5] = tested on: CC57 PDX tumors; experiment: CCA patient-derived xenograft tumor growth; format: in vivo; conditions: n = 5 mice per group, Fig. 2d, e
From the text: as §1

[6] = tested on: CC56 PDX tumors; experiment: CCA patient-derived xenograft tumor growth; format: in vivo; conditions: n = 5 mice per group, Fig. 2d, e
From the text: as §1

[7] = tested on: CC16 PDX tumors; experiment: CCA patient-derived xenograft tumor growth; format: in vivo; conditions: n = 5 mice per group, Fig. 2d, e
From the text: as §1

[8] = tested on: CC11 PDX tumors; experiment: CCA patient-derived xenograft tumor growth; format: in vivo; conditions: n = 5 mice per group, Fig. 2d, e
From the text: as §1

[9] = tested on: 1405R3 cells; experiment: Cell viability assay (CellTiter-Glo, 72 h), GI50; format: cell-based; conditions: Homo sapiens, Fig. 1b
Procedure: (§2) Cell viability was assessed using the CellTiter-Glo luminescent cell viability assay (Vazyme, DD1101) following the manufacturer’s instructions. Briefly, 5000 cells per well were seeded into a 96-well white bottom permeable plate. Different concentrations of drugs were added to each well. After 72 h of treatment, a mixture of CellTier reagent and serum-free culture medium was prepared at a 1:1 ratio, and 100 μL of the mixture was added to each well. After incubation at 37 °C for 15 min, the luminescence was measured using a microplate reader (Synergy H1, Biotek). All the experiments were conducted in triplicate. Cell viability (relative luminescence) was defined as the luminescence of the drug treatment relative to that of the vehicle control.

[10] = tested on: 783C-6 cells; experiment: Cell viability assay (CellTiter-Glo, 72 h), GI50; format: cell-based; conditions: Homo sapiens
Procedure: as §2

[11] = tested on: RBE cells; experiment: Cell viability assay (CellTiter-Glo, 72 h), GI50; format: cell-based; conditions: Homo sapiens, Fig. 1b
Procedure: as §2

[12] = tested on: HuCCT1 cells; experiment: Cell viability assay (CellTiter-Glo, 72 h), GI50; format: cell-based; conditions: Homo sapiens
Procedure: as §2

[13] = tested on: SK-CHA-1 cells; experiment: Cell viability assay (CellTiter-Glo, 72 h), GI50; format: cell-based; conditions: Homo sapiens, Fig. 1b
Procedure: as §2

[14] = tested on: 1405R3 xenografts; experiment: Cell-derived xenograft tumor growth; format: in vivo; conditions: mice xenografted with PFKL low-expressed 1405R3 cells; n = 5 mice per group; Fig. 2b, c
Procedure: (§3) For cell-derived xenograft (CDX) models, tumor cells were resuspended in saline and combined with an equal volume of Matrigel. A total of 1 × 10^6 cells in a 0.1 ml mixture were injected subcutaneously into the right flank of 6-week-old male nude mice. Once the tumor volume reached approximately 100 mm³, the mice were randomly grouped and treated with drugs or saline. The tumor volume was measured every 3 days and calculated via the following formula: tumor volume = (length × width^2) × 0.5. When the tumor volume reached 1500 mm³, the mice were euthanized via CO2 asphyxiation. The tumor tissues were harvested for further study.

[15] = tested on: TFK1 xenografts; experiment: Cell-derived xenograft tumor growth; format: in vivo; conditions: mice xenografted with PFKL high-expressed TFK1 cells; n = 5 mice per group; Fig. 2b, c
Procedure: as §3

[16] = tested on: SK-CHA-1 xenografts; experiment: Cell-derived xenograft tumor growth; format: in vivo; conditions: mice xenografted with PFKL high-expressed SK-CHA-1 cells; n = 5 mice per group; Fig. 2b, c
Procedure: as §3

[17] = tested on: HuCCT1 xenografts; experiment: Cell-derived xenograft tumor growth; format: in vivo; conditions: mice xenografted with PFKL low-expressed HuCCT1 cells; n = 5 mice per group; Fig. 2b, c
Procedure: as §3

[18] = tested on: 783C-6 xenografts; experiment: Cell-derived xenograft tumor growth; format: in vivo; conditions: mice xenografted with PFKL high-expressed 783C-6 cells, n = 5 mice per group, Fig. 2b
Procedure: as §3

[19] = 783C-6 after interference with LHCGR si-1, Fig. 1f
[20] = 783C-6 after interference with LHCGR si-2, Fig. 1f
[21] = 783C-6 after interference with NFIA si-1, Fig. 1f
[22] = 783C-6 after interference with NFIA si-2, Fig. 1f
[23] = 783C-6 after interference with PFKFB1 si-1, Fig. 1f
[24] = 783C-6 after interference with PFKFB1 si-2, Fig. 1f
[25] = 783C-6 after interference with PFKL si-1, Fig. 1f
[26] = 783C-6 after interference with PFKL si-2, Fig. 1f
[27] = 783C-6 expressing sgNC, Fig. 1g
[28] = 783C-6 expressing sgPFKL-1, Fig. 1g
[29] = 783C-6 expressing sgPFKL-2, Fig. 1g
[30] = HuCCT-1, 72 h, HuCCT1, 72 h, CellTiter-Glo, Fig. 1b
[31] = HuCCT-1, 72 h, HuCCT1 vector, 72 h, Fig. 1j
[32] = HuCCT-1, 72 h, HuCCT1 with PFKL overexpression (ovPFKL), 72 h, Fig. 1j

GI50 [13]: 72.2 nM
Structure (SMILES): Cc1[nH]c2ccccc2c1CCNCc1ccc(/C=C/C(=O)NO)cc1 [Panobinostat, panobinostat]
AUC ([1]; 1405R3 DSRT analysis, area under the dose-response curve): 218.4
DSS ([1]; 1405R3 DSRT analysis, drug sensitivity score): 25.4
MIN ([1]; 1405R3 DSRT analysis, lower asymptote of fitted dose-response curve): 0
EC50 ([1]; 1405R3 DSRT analysis, CellTiter-Glo viability, fitted dose-response curve, Min.Conc.tested 1, Max.Conc.tested 10000, GI50, read-out: EC50): 64.9 nM
DSS ([2]; 783C-6 cells, DSS of DSRT analysis): 31.3
AUC ([2]; 783C-6 cells, area under the dose-response curve): 262.4
MIN ([2]; 783C-6 cells, minimum of dose-response curve): 0.3
EC50 ([2]; read-out: EC50): 22.9 nM
PDX tumor growth compared to the control group [3]: no significant disparities
PDX tumor growth compared to the control group [4]: notably attenuated the growth
PDX tumor growth compared to the control group [5]: notably attenuated the growth
PDX tumor growth compared to the control group [6]: no significant disparities
PDX tumor growth compared to the control group [7]: notably attenuated the growth
PDX tumor growth compared to the control group [8]: notably attenuated the growth
GI50 [9]: 162 nM
GI50 ([10]; 783C-6, CellTiter-Glo, Fig. 1b): 37.4 nM
GI50 [10, 19]: 48 nM
GI50 [10, 20]: 65.5 nM
GI50 [10, 21]: 56.6 nM
GI50 [10, 22]: 51.5 nM
GI50 [10, 23]: 59 nM
GI50 [10, 24]: 50.5 nM
GI50 [10, 25]: 590 nM
GI50 [10, 26]: 276 nM
GI50 [10, 27]: 52.4 nM
GI50 [10, 28]: 467 nM
GI50 [10, 29]: 250 nM
GI50 ([10]; 783C-6 siNC, Fig. 1f): 61.4 nM
GI50 [11]: 276 nM
GI50 [12, 30]: 244 nM
GI50 [12, 31]: 285 nM
GI50 [12, 32]: 31.2 nM
tumor growth [14]: limited efficacy
tumor growth [15]: markedly inhibited tumor growth
tumor growth [16]: markedly inhibited tumor growth
tumor growth [17]: limited efficacy
tumor growth [18]: markedly inhibited tumor growth

Structure (SMILES): C/C=C1\NC(=O)[C@H]2CSSCC/C=C/[C@H](CC(=O)N[C@H](C(C)C)C(=O)N2)OC(=O)[C@H](C(C)C)NC1=O [Romidepsin, romidepsin]
AUC [1]: 228.5
DSS [1]: 26.8
MIN [1]: 0
EC50 [1]: 51.3 nM
AUC [2]: 354.8
DSS [2]: 43.7
MIN [2]: 0
EC50 [2]: 2.7 nM
PDX tumor growth compared to the control group [3]: no significant disparities
PDX tumor growth compared to the control group [4]: notably attenuated the growth
PDX tumor growth compared to the control group [5]: notably attenuated the growth
PDX tumor growth compared to the control group [6]: no significant disparities
PDX tumor growth compared to the control group [7]: notably attenuated the growth
PDX tumor growth compared to the control group [8]: notably attenuated the growth
GI50 [9]: 64.4 nM
GI50 ([10]; 783C-6, CellTiter-Glo, Fig. 1b): 2.55 nM
GI50 ([10]; 783C-6, romidepsin alone or combined with PFKL enzymatic activity modifier, Fig. 3b second table): 4.3 nM
GI50 ([10]; 783C-6, romidepsin alone or combined with glycolysis inhibitors, Fig. 3b first table): 3.49 nM
GI50 [10, 19]: 3.8 nM
GI50 [10, 20]: 3.4 nM
GI50 [10, 21]: 2.5 nM
GI50 [10, 22]: 2.8 nM
GI50 [10, 23]: 3.1 nM
GI50 [10, 24]: 2.9 nM
GI50 [10, 25]: 38.8 nM
GI50 [10, 26]: 11.4 nM
GI50 [10, 27]: 2.9 nM
GI50 [10, 28]: 34.8 nM
GI50 [10, 29]: 15.3 nM
GI50 [11]: 115 nM
GI50 [12, 30]: 83.4 nM
GI50 [12, 31]: 74 nM
GI50 [12, 32]: 3.96 nM
GI50 ([12]; HuCCT-1, HuCCT1, pretreated with peptide or NS for 12 h, then romidepsin 72 h, Fig. 5g): 93.5 nM
GI50 [13]: 5.5 nM
tumor growth [14]: limited efficacy
tumor growth [15]: markedly inhibited tumor growth
tumor growth [16]: markedly inhibited tumor growth
tumor growth [17]: limited efficacy
tumor growth [18]: markedly inhibited tumor growth
